Measured values: patent publication EP4703354A1, “COMPOUND AS CCR6 ANTAGONIST, AND PHARMACEUTICAL COMPOSITION AND USE THEREOF” (Wuhan Createrna Science and Technology Co.,Ltd., priority 2023, dated 2024)

Assays:
human CXCR2 = target: T1, human CXCR2 (Homo sapiens, UniProt P25025); test: human CXCR2 calcium flux activity (FLIPR, HEK293 cells stably expressing human CXCR2, IL-8 stimulation); format: cell-based; conditions: HEK293 cells stably expressing human CXCR2, EC80 human IL-8; read-out: CXCR2 inhibitory activity, IC50
T1 construct: expressed in transfected cells; host or cells: HEK293
T1 sequence (P25025 1-360): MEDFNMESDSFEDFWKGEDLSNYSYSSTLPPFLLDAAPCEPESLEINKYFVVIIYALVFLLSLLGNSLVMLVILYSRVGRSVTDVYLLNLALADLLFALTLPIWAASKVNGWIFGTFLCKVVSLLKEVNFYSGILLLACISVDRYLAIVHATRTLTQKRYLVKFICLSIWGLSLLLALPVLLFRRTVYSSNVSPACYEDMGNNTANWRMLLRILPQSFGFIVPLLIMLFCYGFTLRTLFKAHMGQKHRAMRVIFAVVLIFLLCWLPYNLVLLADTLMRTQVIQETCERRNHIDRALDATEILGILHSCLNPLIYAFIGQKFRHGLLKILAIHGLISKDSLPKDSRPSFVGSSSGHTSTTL
Procedure: The activity of the compounds was evaluated using HEK293 cells stably expressing human CXCR2 via the FLIPR platform. A 384-well black cell culture plate (Greiner, 781946) was used, with a seeding density of 20,000 cells/well, and incubated overnight at 37°C in a 5% CO2 incubator. The culture medium in the cell plate wells was removed, and 20 µL of Fluo-4 Direct™ Calcium Assay Buffer (Invitrogen, F10471, Component C), 20 µL of 2× Fluo-4 Direct™ Calcium Assay Reagent (Invitrogen, F10471, Component A) working solution, and 10 µL of 6× test compound working solution were sequentially added to each well. The cell plate was incubated in a 37 °C, 5% CO2 incubator for 50 min, followed by a 10 min incubation at room temperature. Additionally, a 6×EC80 human IL-8 (Sigma, SRP3311) working solution was prepared. After the incubation was completed, 10 µL/well of the 6×EC80 human IL-8 working solution was transferred to the corresponding cell wells using a FLIPR instrument, and the fluorescence signal changes at an excitation wavelength of 494 nm and an emission wavelength of 516 nm were recorded over 130 s. The difference between the maximum fluorescence signal (RFUMax) and the minimum fluorescence signal (RFUMin) was used as the output signal. The compound inhibition rate and the log value of the compound concentration were calculated, and a four-parameter fitting analysis was performed using GraphPad Prism 8 software to obtain the IC50 value of the test compound. Table 1. Inhibitory activity data of compounds against CCR6 and CXCR2

[1] = in vitro liver microsome metabolic stability, mouse; format: in vitro ADME; conditions: Mouse liver microsomes, 37°C
Procedure: Preparation of working solutions for test compounds and standards: An appropriate amount of the compound was accurately weighed and dissolved in a corresponding volume of suitable solvent to prepare 1 mM stock solutions of the test compounds and standards. The stock solutions were then diluted with appropriate solvent to obtain 100 µM working solutions of the test compounds, ensuring that the DMSO content in the working solutions remained below 10%.
The internal standard compound testosterone (or tolbutamide) and its corresponding solvent, internal standard concentration (200 ng/mL), were selected based on the properties of the test compound.
• Solution A: 0.1 mol/L K2HPO4 (2.28 g K2HPO4·3H2O was dissolved in 100 mL of double-distilled water); • Solution B: 0.1 mol/L KH2PO4 (1.36 g KH2PO4 was dissolved in 100 mL of double-distilled water); • 80.2 mL of Solution A and 19.8 mL of Solution B were mixed thoroughly, and the pH was adjusted to 7.4.
37.5 mg of glycine was weighed, dissolved in 100 mL of ultrapure water, and adjusted to pH 8.0 with NaOH.
1.25 mg of glucose-6-phosphate dehydrogenase (400 U/mg) was weighed (the specific amount weighed was calculated based on the activity of the purchased glucose-6-phosphate dehydrogenase), dissolved in 1 mL of glycine buffer to a concentration of 500 U/mL, aliquoted into 20 µL per tube, and stored at -20°C for future use.
7.83 mg of NADP, 0.06 mL of D-glucose-6-phosphate (260 mg/mL), and 10.17 mg of MgCl2·6H2O were precisely weighed.
The mixture was dissolved in 1 mL of pure water. The cofactor ratio composition: NADP 10 mM, D-glucose-6-phosphate 60 mM, MgCl2·6H2O 50 mM.
The reaction system (taking a 500 µL system as an example) was composed of the following solution ratios: 416.5 µL phosphate buffer, 5 µL compound working solution, 25 µL liver microsomes, 3.5 µL glucose-6-phosphate dehydrogenase, and 50 µL cofactor solution. The total incubation volume could be adjusted according to experimental requirements.
416.5 µL of phosphate buffer was taken, 25 µL of liver microsomes, 3.5 µL of glucose-6-phosphate dehydrogenase, and 50 µL of cofactor solution were added, vortexed twice to mix, and preincubated in a 37°C water bath for 5 minutes. Then, 5 µL of the test compound working solution was added, vortexed twice to mix, each time for 2-3 seconds, and placed in a 37°C water bath to initiate the reaction, with two parallel samples set. At 0.5 min, 1 min, 2 min, 5 min, 15 min, and 30 min after the reaction, 50 µL of the mixture was taken and added to centrifuge tubes containing 200 µL of 0°C pre-cooled internal standard working solution to terminate the reaction, vortexed for 1 minute to mix, and centrifuged at 13,000 rpm for 10 minutes in a 4°C pre-cooled high-speed centrifuge. The supernatant was collected for analysis. After the compound was added and vortex-mixed, 50 µL of the mixture was rapidly transferred to a centrifuge tube containing 200 µL of a pre-cooled (0°C) internal standard working solution to terminate the reaction, vortex-mixed for 1 minute, and used as the relative zero-point sample (relative to the standard group). The sample was then placed into a 37°C water bath to initiate the reaction, and timing was started.
The sample analysis of the test compound was performed using the liquid chromatography-tandem mass spectrometry (LCMS/MS) method. The semi-quantitative determination was performed using the ratio of the analyte peak area to the internal standard peak area. The retention times of the analyte and internal standard, chromatogram acquisition, and chromatogram integration were processed using Analyst software.
The in vitro elimination rate constant k of the test compound and the control compound was determined by converting the ratio of the peak area of the test compound to the internal standard into the remaining rate, and T1/2 was then calculated according to the following formula. T1/2 = (Ln2)/(k) = (0.693)/(k) [formula] Table 3. […]

[2] = in vitro liver microsome metabolic stability, rat; format: in vitro ADME; conditions: Rat liver microsomes, 37°C
Procedure, shortened: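 Test compound at 1 µM final (100 µM working solution diluted 1:100) incubated at 37°C with liver microsomes in pH 7.4 phosphate buffer with NADP/G6P/G6PDH/MgCl2 regenerating system; sampled 0–30 min, LC-MS/MS vs internal standard. T1/2 = 0.693/k from remaining-fraction decay.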

Row | SMILES | IC50 (human CXCR2) [µM] | Liver microsome T1-2 (min) Mouse [1] [min] | Liver microsome T1-2 (min) Rat [2] [min]
1 | CN(C)C(=O)c1nccc(Nc2c(N[C@@H](C#CC3CCC3)[C@]3(C)CC(F)(F)CO3)c(=O)c2=O)c1O (single isomer, unassigned) [110A] | 0.297 | 1597.63 | 292.82
2 | CN(C)C(=O)c1nccc(Nc2c(N[C@@H](c3nc(Cl)ccc3F)[C@@]3(C)CC(F)(F)CO3)c(=O)c2=O)c1O [068B, 4-((2-(((S)-(6-chloro-3-fluoropyridin-2-yl)((R)-4,4-difluoro-2-methyltetrahydrofuran-2-yl)methyl)amino)-3,4-dioxocyclobut-1-en-1-yl)amino)-3-hydroxy-N,N-dimethylpicolinamide] | 7.63 | 65.23 | 570.62
3 | Cc1cc(F)cnc1[C@H](Nc1c(Nc2ccnc(C(=O)N(C)C)c2O)c(=O)c1=O)[C@]1(C)CC(F)(F)CO1 [093A, 4-((2-(((S)-((S)-4,4-difluoro-2-methyltetrahydrofuran-2-yl)(5-fluoro-3-methylpyridin-2-yl)methyl)amino)-3,4-dioxocyclobut-1-en-1-yl)amino)-3-hydroxy-N,N-dimethylpicolinamide] | > 100 | – | 110.15
4 | CN(C)C(=O)c1nccc(Nc2c(N[C@@H](c3cccc(Cl)n3)C3(C)CCCC3)c(=O)c2=O)c1O [compound 003, (R)-4-((2-(((6-chloropyridin-2-yl)(1-methylcyclopentyl)methyl)amino)-3,4-dioxocyclobut-1-en-1-yl)amino)-3-hydroxy-N,N-dimethylpicolinamide] | 2.21 | – | 93.67
5 | CN(C)C(=O)c1nccc(Nc2c(N[C@@H](c3ccc(F)cn3)C3(C)CCCC3)c(=O)c2=O)c1O [compound 005, (R)-4-((2-(((5-fluoropyridin-2-yl)(1-methylcyclopentyl)methyl)amino)-3,4-dioxocyclobut-1-en-1-yl)amino)-3-hydroxy-N,N-dimethylpicolinamide] | 1.25 | 1188.6 | 101.29
6 | CN(C)C(=O)c1nccc(Nc2c(N[C@@H](c3ncc(F)cc3F)C3(C)CCCC3)c(=O)c2=O)c1O [compound 009, (R)-4-((2-(((3,5-difluoropyridin-2-yl)(1-methylcyclopentyl)methyl)amino)-3,4-dioxocyclobut-1-en-1-yl)amino)-3-hydroxy-N,N-dimethylpicolinamide] | 2.43 | 178.84 | 62.30
7 | Cc1cccnc1[C@H](Nc1c(Nc2ccc(Cl)c(C(=O)N(C)C)c2O)c(=O)c1=O)C1(C)CCCC1 [compound 063, (R)-6-chloro-2-hydroxy-N,N-dimethyl-3-((2-(((1-methylcyclopentyl)(3-methylpyridin-2-yl)methyl)amino)-3,4-dioxocyclobut-1-en-1-yl)amino)benzamide] | 15.3 | ≥120 | 20.71
8 | CN(C)C(=O)c1nccc(Nc2c(N[C@@H](c3cccc(CF)n3)C3(C)CCCC3)c(=O)c2=O)c1O [compound 108, (R)-4-((2-(((6-(fluoromethyl)pyridin-2-yl)(1-methylcyclopentyl)methyl)amino)-3,4-dioxocyclobut-1-en-1-yl)amino)-3-hydroxy-N,N-dimethylpicolinamide] | 0.74 | – | 124.28
9 | CC#C[C@H](Nc1c(Nc2ccnc(C(=O)N(C)C)c2O)c(=O)c1=O)C1(C)CCCC1 [compound 113, (R)-3-hydroxy-N, N-dimethyl-4-((2-((1-(1-methylcyclopentyl)but-2-yn-1-yl)amino)-3,4-dioxocyclobut-1-en-1-yl)amino)picolinamide] | 1.48 | – | 124.51
10 | CC#C[C@H](Nc1c(Nc2ccc(Cl)c(C(=O)N(C)C)c2O)c(=O)c1=O)C1(C)CCCC1 [compound 114, (R)-6-chloro-2-hydroxy-N, N-dimethyl-3-((2-((1-(1-methylcyclopentyl)but-2-yn-1-yl)amino)-3,4-dioxocyclobut-1-en-1-yl)amino)benzamide] | 1.45 | 361.28 | 120.25
11 | CN(C)C(=O)c1nccc(Nc2c(N[C@@H](C#CC3CC3)C3(C)CCCC3)c(=O)c2=O)c1O [compound 115, (R)-4-((2-((3-cyclopropyl-1-(1-methylcyclopentyl)prop-2-yn-1-yl)amino)-3,4-dioxocyclobut-1-en-1-yl)amino)-3-hydroxy-N,N-dimethylpicolinamide] | 0.527 | 1889.54 | 114.18
